One molecule from patent US20080004348A1, “Naphthalene compounds” (LES LABORATOIRES SERVIER, priority 2006, published 2008) can be followed below.

In one experiment the target is T1, human 5-HT2C receptor (Homo sapiens, UniProt P28335).
T1 construct: expressed in transfected cells
T1 sequence (P28335 33-458): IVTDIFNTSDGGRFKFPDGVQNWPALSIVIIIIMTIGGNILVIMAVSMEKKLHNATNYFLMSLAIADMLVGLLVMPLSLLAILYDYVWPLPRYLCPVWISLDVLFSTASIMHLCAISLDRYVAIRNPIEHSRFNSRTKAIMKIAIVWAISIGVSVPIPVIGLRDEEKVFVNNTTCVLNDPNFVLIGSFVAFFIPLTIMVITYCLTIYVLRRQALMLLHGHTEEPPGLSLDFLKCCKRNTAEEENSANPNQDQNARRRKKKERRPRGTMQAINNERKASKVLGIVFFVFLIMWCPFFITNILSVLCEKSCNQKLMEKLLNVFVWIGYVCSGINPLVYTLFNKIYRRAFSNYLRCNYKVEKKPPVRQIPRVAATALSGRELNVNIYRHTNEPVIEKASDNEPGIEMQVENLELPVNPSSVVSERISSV
The experiment is described as follows: Serotoninergic 5-HT2C receptor binding study, [3H]-mesulergine. The note with it: membranes from CHO cells expressing human 5-HT2C. The protocol: The affinity of the compounds for the human 5-HT2C receptor is evaluated on membrane preparations from CHO cells stably expressing that receptor.
Incubation is carried out in 50mM TRIS buffer, pH 7.4 containing 10 mM MgCl2 and 0.1% BSA, in the presence of [^3H]-mesulergine (InM) and 25 fmol/ml of receptor. Non-specific binding is determined in the presence of 10 μM mianserin.
The reaction is stopped by the addition of 50 mM TRIS buffer, pH 7.4 followed by a filtration step and 3 successive rinses: the radioactivity bound to the membranes remaining on the filters (GF/B pretreated with 0.1% PEI) is determined by liquid scintillation counting.

The target of a further experiment is MT1 receptor (Homo sapiens, UniProt P48039). The experiment in a line: Melatonin MT1 receptor binding study, 2-[125I]-iodomelatonin. The note with it: 2-[125I]-iodomelatonin radioligand. The protocol:
(§1) The MT1 or MT2 receptor binding experiments are carried out using 2-[^125I]-iodomelatonin as reference radioligand. The radioactivity retained is determined using a liquid scintillation counter.
(§2) Competitive binding experiments are then carried out in triplicate using the various test compounds. A range of different concentrations is tested for each compound. The results enable the binding affinities of the compounds tested (Ki) to be determined.

The next experiment deals with T2, MT2 receptor (Homo sapiens, UniProt P49286).
T2 sequence (P49286 1-362): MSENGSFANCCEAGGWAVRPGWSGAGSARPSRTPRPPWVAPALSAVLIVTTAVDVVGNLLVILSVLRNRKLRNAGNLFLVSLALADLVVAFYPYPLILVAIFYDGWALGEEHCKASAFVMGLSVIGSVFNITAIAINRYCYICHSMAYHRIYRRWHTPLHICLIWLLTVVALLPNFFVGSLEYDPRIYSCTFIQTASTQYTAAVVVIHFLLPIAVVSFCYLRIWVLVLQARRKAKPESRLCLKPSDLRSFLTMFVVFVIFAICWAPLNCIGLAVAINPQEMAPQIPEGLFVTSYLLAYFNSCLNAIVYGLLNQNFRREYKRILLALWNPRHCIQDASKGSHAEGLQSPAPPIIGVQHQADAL
The experiment in a line: Melatonin MT2 receptor binding study, 2-[125I]-iodomelatonin. The following applies: 2-[125I]-iodomelatonin radioligand. The protocol: as §1, §2

Chain of MT1 receptor (P48039 whole entry): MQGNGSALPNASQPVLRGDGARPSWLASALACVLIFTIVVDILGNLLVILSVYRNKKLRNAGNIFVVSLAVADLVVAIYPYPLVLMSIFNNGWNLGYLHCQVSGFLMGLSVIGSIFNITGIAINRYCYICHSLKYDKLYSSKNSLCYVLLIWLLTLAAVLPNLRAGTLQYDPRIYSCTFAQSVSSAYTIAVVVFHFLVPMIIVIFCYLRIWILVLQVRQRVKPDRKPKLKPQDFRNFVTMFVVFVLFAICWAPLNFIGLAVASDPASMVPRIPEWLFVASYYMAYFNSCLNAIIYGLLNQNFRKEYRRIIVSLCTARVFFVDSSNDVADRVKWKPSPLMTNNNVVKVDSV

In the case of `COCC(CNC(C)=O)c1cccc2ccc(OC)cc12` (stereo not drawn) [Example 6, N-[3-Methoxy-2-(7-methoxy-1-naphthyl)propyl]acetamide], the Ki at human 5-HT2C receptor is 26000 nM; on MT1 receptor, 4.9 nM; at MT2 receptor, 8.9 nM.
